In patent US9567322B2, “Substituted tetrahydropyrans and method of use” (AbbVie S.á.r.l., priority 2014, dated 2017):

Biological target: T1, F508delCFTR (Homo sapiens, UniProt P13569, DEL508-508)
T1 construct: expressed in transfected cells; host or cells: CFBE41o- (CFBE41o-F508delCFTR-HRP), doxycycline-inducible
Experiment: Cell Surface Expression-Horse Radish Peroxidase (CSE-HRP) assay
Type: cell-based
Settings: CFBE41o-F508delCFTR-HRP cells; for EC50: cell surface expression, luminescence readout, 18-24 hours at 33° C., highest concentration tested 20 μM, 8-point curve; for Maximum % activity: maximum at any tested concentration, normalized to on-plate positive control (3 μM) and DMSO
From the text: Cell Surface Expression-Horse Radish Peroxidase (CSE-HRP) Assay:
A cellular assay for measuring the F508delCFTR cell surface expression after correction with test compounds was developed in human lung derived epithelial cell line (CFBE41o-) (Veit G et al, (2012) Mol Biol Cell. 23(21): 4188-4202). This was achieved by expressing the F508delCFTR mutation along with a horseradish peroxidase (HRP) in the fourth exofacial loop and then measuring the HRP activity using luminescence readout from these cells, CFBE41o-F508delCFTR-HRP, that were incubated overnight with the test corrector compounds. Briefly, for this primary assay, the CFBE41o-F508delCFTR-HRP cells were plated in 384-well plates (Greiner Bio-one; Cat 781080) at 4,000 cells/well along with 0.5 μg/mL doxycycline to induce the F508delCFTR-HRP expression and further incubated at 37° C., 5% CO2 for 72 hours. The test compounds were then added at the required concentrations and further incubated for 18-24 hours at 33° C. The highest concentration tested was 20 μM with an 8-point concentration response curve using a 3-fold dilution. Three replicate plates were run to determine one EC50. All plates contained negative controls (dimethyl sulfoxide, DMSO) and positive controls (3 μM of 3-[(2R,4R)-4-({[1-(2,2-difluoro-1,3-benzodioxol-5-yl)cyclopropyl]carbonyl}amino)-7-methoxy-3,4-dihydro-2H-chromen-2-yl]benzoic acid) as well as on-plate concentration response of the positive control. Post incubation, the plates were washed 5× times with Dulbecco's phosphate buffered saline (DPBS), followed by the addition of the HRP substrate, luminol (50 μL), and measuring the HRP activity using luminescence readout on EnVision® Multilabel Plate Reader (Perkin Elmer; product number 2104-0010). The raw counts from the experiment are analyzed using Accelrys® Assay Explorer v3.3.
Z′ greater than 0.5 was used as passing quality control criteria for the plates.
The Z′ is defined as: 1−[3*SDPositive Control+3*SDNegative Control/Absolute(MeanPositive Control−MeanNegative Control)],
wherein “SD” is standard deviation.
The % activity measured at each of the 8 test concentrations of the test compound was normalized to the on-plate positive control using the following formula: % activity=[(test compound response−DMSO response)/(positive control response−DMSO response)]*100
The maximum % activity achieved for the test compound at any tested concentration is presented in Table 1 along with the EC50 calculated using the following general sigmoidal curve with variable Hill slope equation (described as Model 42 in the Accelrys® Assay Explorer v3.3 software): y=(a−d)/(1+(x/c)^b)+d General sigmoidal curve with concentration, response, top, bottom, EC50 and Hill slope.
This model describes a sigmoidal curve with an adjustable baseline, a. The equation can be used to fit curves where response is either increasing or decreasing with respect to the independent variable, “x”.
“x” is a concentration of drug under test.
“a” is the maximum response, and “d” is the minimum response
“c” is the inflection point (EC50) for the curve. That is, “y” is halfway between the lower and upper asymptotes when x=c.
“b” is the slope-factor or Hill coefficient. The sign of b is positive when the response increases with increasing dose and is negative when the response decreases with increasing dose (inhibition).

T1 sequence (P13569 with tags, fused parts or gaps DEL508-508): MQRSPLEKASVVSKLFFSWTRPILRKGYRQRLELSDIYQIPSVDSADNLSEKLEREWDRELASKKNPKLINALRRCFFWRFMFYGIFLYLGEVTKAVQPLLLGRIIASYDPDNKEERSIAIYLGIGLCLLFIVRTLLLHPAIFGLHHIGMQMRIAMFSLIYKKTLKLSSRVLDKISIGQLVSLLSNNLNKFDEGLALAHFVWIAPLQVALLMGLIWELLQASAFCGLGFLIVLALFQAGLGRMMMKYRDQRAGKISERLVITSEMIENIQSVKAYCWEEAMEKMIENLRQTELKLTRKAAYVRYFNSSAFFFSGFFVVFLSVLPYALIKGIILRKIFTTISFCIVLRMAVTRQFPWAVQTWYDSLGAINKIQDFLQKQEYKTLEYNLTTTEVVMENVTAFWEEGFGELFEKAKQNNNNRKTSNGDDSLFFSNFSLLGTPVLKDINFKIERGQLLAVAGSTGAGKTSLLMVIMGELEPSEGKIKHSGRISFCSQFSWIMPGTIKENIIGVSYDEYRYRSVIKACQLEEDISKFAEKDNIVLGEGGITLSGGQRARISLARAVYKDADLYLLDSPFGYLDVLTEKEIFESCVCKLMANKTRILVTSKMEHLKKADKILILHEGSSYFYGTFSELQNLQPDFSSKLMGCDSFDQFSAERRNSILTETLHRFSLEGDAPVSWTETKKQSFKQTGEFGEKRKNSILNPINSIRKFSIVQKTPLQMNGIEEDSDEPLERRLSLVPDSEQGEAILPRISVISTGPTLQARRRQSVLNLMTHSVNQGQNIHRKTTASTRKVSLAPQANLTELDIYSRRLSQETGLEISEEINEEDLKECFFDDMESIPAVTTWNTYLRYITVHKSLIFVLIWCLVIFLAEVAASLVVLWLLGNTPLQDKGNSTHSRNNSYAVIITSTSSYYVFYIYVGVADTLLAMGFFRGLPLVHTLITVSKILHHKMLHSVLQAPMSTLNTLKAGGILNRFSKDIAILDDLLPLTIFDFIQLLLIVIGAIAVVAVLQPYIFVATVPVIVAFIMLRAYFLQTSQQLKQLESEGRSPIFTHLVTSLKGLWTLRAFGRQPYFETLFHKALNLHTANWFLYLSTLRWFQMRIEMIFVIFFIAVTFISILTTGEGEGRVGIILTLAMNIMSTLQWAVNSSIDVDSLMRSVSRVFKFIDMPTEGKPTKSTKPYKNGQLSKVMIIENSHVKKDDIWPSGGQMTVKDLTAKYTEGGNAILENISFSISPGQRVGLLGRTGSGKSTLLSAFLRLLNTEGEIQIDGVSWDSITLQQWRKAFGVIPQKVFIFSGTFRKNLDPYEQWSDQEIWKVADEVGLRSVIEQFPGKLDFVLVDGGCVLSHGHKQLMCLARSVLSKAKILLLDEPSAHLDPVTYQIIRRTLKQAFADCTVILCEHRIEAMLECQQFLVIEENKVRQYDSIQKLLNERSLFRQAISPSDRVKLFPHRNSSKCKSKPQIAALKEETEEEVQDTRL

EC50 [nM] | Maximum % activity [%] | SMILES
1110 | 81 | COC(=O)c1cccc([C@H]2C[C@@H](NC(=O)C3(c4ccc5c(c4)OC(F)(F)O5)CC3)CCO2)c1 [Example 17, methyl 3-[(2R,4S)-4-({[1-(2,2-difluoro-1,3-benzodioxol-5-yl)cyclopropyl]carbonyl}amino)tetrahydro-2H-pyran-2-yl]benzoate]
470 | 115 | Cc1cc(C(=O)O)ccc1[C@H]1C[C@@H](NC(=O)C2(c3ccc4c(c3)OC(F)(F)O4)CC2)CCO1 (stereo in doubt) [Example 37, rac-4-[(2R,4S)-4-({[1-(2,2-difluoro-1,3-benzodioxol-5-yl)cyclopropyl]carbonyl}amino)tetrahydro-2H-pyran-2-yl]-3-methylbenzoic acid]
910 | 92 | Cc1ccc(C(=O)O)cc1[C@H]1C[C@@H](NC(=O)C2(c3ccc4c(c3)OC(F)(F)O4)CC2)C[C@@H](c2ccccc2)O1 (racemic) [Example 70, rac-3-[(2R,4S,6S)-4-({[1-(2,2-difluoro-1,3-benzodioxol-5-yl)cyclopropyl]carbonyl}amino)-6-phenyltetrahydro-2H-pyran-2-yl]-4-methylbenzoic acid]
1310 | 92 | COC(=O)c1ccc(C)c([C@H]2C[C@@H](NC(=O)C3(c4ccc5c(c4)OC(F)(F)O5)CC3)C[C@@H](c3ccccc3)O2)c1 (racemic) [Example 71, methyl rac-3-[(2R,4S,6S)-4-({[1-(2,2-difluoro-1,3-benzodioxol-5-yl)cyclopropyl]carbonyl}amino)-6-phenyltetrahydro-2H-pyran-2-yl]-4-methylbenzoate]
6870 | 36 | Cc1cc(C(=O)O)ccc1[C@@H]1C[C@H](NC(=O)C2(c3ccc4c(c3)OC(F)(F)O4)CC2)CCO1 (stereo in doubt) [Example 42, rel-4-[(2S,4R)-4-({[1-(2,2-difluoro-1,3-benzodioxol-5-yl)cyclopropyl]carbonyl}amino)tetrahydro-2H-pyran-2-yl]-3-methylbenzoic acid]
7370 | 63 | C[C@H]1C[C@@H](NC(=O)C2(c3ccc4c(c3)OC(F)(F)O4)CC2)C[C@@H](c2ccc(C(=O)O)cc2)O1 (single isomer, unassigned) [Example 58]
1590 | 38 | Cc1cc(C(=O)O)cc([C@@H]2C[C@H](NC(=O)C3(c4ccc5c(c4)OC(F)(F)O5)CC3)C[C@H](c3ccccc3)O2)c1 (single isomer, unassigned) [Example 76]
2580 | 88 | O=C(O)c1ccc(C2CC(NC(=O)C3(c4ccc5c(c4)OC(F)(F)O5)CC3)CC(C3CC3)O2)cc1 (stereo not shown) [Example 44, 4-[6-cyclopropyl-4-({[1-(2,2-difluoro-1,3-benzodioxol-5-yl)cyclopropyl]carbonyl}amino)tetrahydro-2H-pyran-2-yl]benzoic acid]
1390 | 57 | CC(=O)c1cccc([C@H]2C[C@@H](NC(=O)C3(c4ccc5c(c4)OC(F)(F)O5)CC3)CCO2)c1 (racemic) [Example 8, rac-N-[(2R,4S)-2-(3-acetylphenyl)tetrahydro-2H-pyran-4-yl]-1-(2,2-difluoro-1,3-benzodioxol-5-yl)cyclopropanecarboxamide]
2020 | 108 | O=C(O)c1cccc([C@H]2C[C@H](NC(=O)C3(c4ccc5c(c4)OC(F)(F)O5)CC3)C[C@@H](c3ccccc3)O2)c1 (racemic) [Example 25, rac-3-[(2R,4R,6S)-4-({[1-(2,2-difluoro-1,3-benzodioxol-5-yl)cyclopropyl]carbonyl}amino)-6-phenyltetrahydro-2H-pyran-2-yl]benzoic acid]
580 | 90 | COc1ccc([C@@H]2C[C@H](NC(=O)C3(c4ccc5c(c4)OC(F)(F)O5)CC3)C[C@H](c3ccc(C(=O)O)cc3)O2)cc1 (racemic) [Example 57, rac-4-[(2R,4R,6S)-4-({[1-(2,2-difluoro-1,3-benzodioxol-5-yl)cyclopropyl]carbonyl}amino)-6-(4-methoxyphenyl)tetrahydro-2H-pyran-2-yl]benzoic acid]
2620 | 44 | COC(=O)c1cccc([C@@H]2C[C@H](NC(=O)C3(c4ccc5c(c4)OC(F)(F)O5)CC3)CCO2)c1 [Example 16, methyl 3-[(2S,4R)-4-({[1-(2,2-difluoro-1,3-benzodioxol-5-yl)cyclopropyl]carbonyl}amino)tetrahydro-2H-pyran-2-yl]benzoate]
760 | 103 | COC(=O)c1ccc([C@@H]2C[C@H](NC(=O)C3(c4ccc5c(c4)OC(F)(F)O5)CC3)C[C@H](c3ccc(C(=O)OC)cc3)O2)cc1 [Example 51, dimethyl rac-4,4′-[(2R,4s,6S)-4-({[1-(2,2-difluoro-1,3-benzodioxol-5-yl)cyclopropyl]carbonyl}amino)tetrahydro-2H-pyran-2,6-diyl]dibenzoate]
7300 | 45 | O=C(N[C@@H]1CCO[C@@H](c2ccc(Br)cc2)C1)C1(c2ccc3c(c2)OC(F)(F)O3)CC1 [Example 20, N-[(2R,4R)-2-(4-bromophenyl)tetrahydro-2H-pyran-4-yl]-1-(2,2-difluoro-1,3-benzodioxol-5-yl)cyclopropanecarboxamide]
1040 | 108 | CCOC(=O)c1cccc([C@H]2C[C@@H](NC(=O)C3(c4ccc5c(c4)OC(F)(F)O5)CC3)C[C@@H](c3cccc(OC)c3)O2)c1 (racemic) [Example 68, ethyl rac-3-[(2R,4R,6S)-4-({[1-(2,2-difluoro-1,3-benzodioxol-5-yl)cyclopropyl]carbonyl}amino)-6-(3-methoxyphenyl)tetrahydro-2H-pyran-2-yl]benzoate]
3110 | 23 | COC(=O)c1cccc([C@H]2C[C@H](NC(=O)C3(c4ccc5c(c4)OC(F)(F)O5)CC3)CCO2)c1 (racemic) [Example 4, methyl rac-3-[(2R,4R)-4-({[1-(2,2-difluoro-1,3-benzodioxol-5-yl)cyclopropyl]carbonyl}amino)tetrahydro-2H-pyran-2-yl]benzoate]
980 | 90 | C[C@@H]1C[C@H](NC(=O)C2(c3ccc4c(c3)OC(F)(F)O4)CC2)C[C@H](c2ccc(C(=O)O)cc2)O1 (single isomer, unassigned) [Example 59]
2000 | 101 | C[C@@H]1C[C@H](NC(=O)C2(c3ccc4c(c3)OC(F)(F)O4)CC2)C[C@H](c2ccc(C(=O)O)cc2)O1 (racemic) [Example 45, rac-4-[(2R,4S,6R)-4-({[1-(2,2-difluoro-1,3-benzodioxol-5-yl)cyclopropyl]carbonyl}amino)-6-methyltetrahydro-2H-pyran-2-yl]benzoic acid]
1410 | 64 | COC(=O)c1cccc([C@H]2C[C@@H](NC(=O)C3(c4ccc5c(c4)OC(F)(F)O5)CC3)CCO2)c1 (racemic) [Example 3, methyl rac-3-[(2R,4S)-4-({[1-(2,2-difluoro-1,3-benzodioxol-5-yl)cyclopropyl]carbonyl}amino)tetrahydro-2H-pyran-2-yl]benzoate]
860 | 104 | COC(=O)c1ccc([C@H]2C[C@@H](NC(=O)C3(c4ccc5c(c4)OC(F)(F)O5)CC3)C[C@@H](c3ccc(OC)cc3)O2)cc1 (racemic) [Example 55, methyl rac-4-[(2R,4R,6S)-4-({[1-(2,2-difluoro-1,3-benzodioxol-5-yl)cyclopropyl]carbonyl}amino)-6-(4-methoxyphenyl)tetrahydro-2H-pyran-2-yl]benzoate]
